From patent US8198217B2, “Composition for weeding” (Kumiai Chemical Industry Co., Ltd., priority 2007, dated 2012)

Tests used:
paddy rice plants (Or) = assay: Weed control effect test on paddy fields: phytotoxicity to paddy rice; format: in vivo; conditions: applied onto water surface, 25th day from treatment
From the text: (§1) A plastic pot of 1/20000 are area was each filled with a paddy field soil which was manured and shuffled followed by sowing of the respective seeds of early watergrass (ECHOR), heartshape false pickerelweed (MOOVA), rock's bulrush (SCIJO) and marsh dayflower (ANEKE) and burying of tuberous roots of tidalmarsh flatsedge (CYPSE) followed by pooling of water in a water depth of 1 cm. And, paddy rice plants (Or) at the two-leaves stage were transplanted to the same pot and grown in a greenhouse. Thereafter, on the day when the early watergrass had reached its 2.5 leaves stage, pooling of water was undertaken in order to make the water depth to 3 cm and agents each prepared by dilution of a specified amount of the wettable powder prepared in the same manner as in Example 1 and 2 with water was applied onto the water surface, respectively. Then, growing was continued keeping the pooling water depth of 3 cm to record the weed control effect and the extent of phytotoxicity on the 25th day from the treatment as indexes according to the criteria given in Table 1. The dosages are given in terms of the amount of the active ingredients per 10 ares area.

early watergrass (ECHOR) = assay: Weed control effect test on paddy fields; format: in vivo, Echinochloa oryzicola; conditions: applied onto water surface, 25th day from treatment
From the text: as §1

[1] = test system: heartshape false pickerelweed (MOOVA); assay: Weed control effect test on paddy fields; format: in vivo, Monochoria vaginalis; conditions: applied onto water surface, 25th day from treatment
From the text: as §1

rock's bulrush (SCIJO) = assay: Weed control effect test on paddy fields; format: in vivo, Scirpus juncoides; conditions: applied onto water surface, 25th day from treatment
From the text: as §1

[2] = test system: tidalmarsh flatsedge (CYPSE); assay: Weed control effect test on paddy fields; format: in vivo, Cyperus serotinus; conditions: applied onto water surface, 25th day from treatment
From the text: as §1

marsh dayflower (ANEKE) = assay: Weed control effect test on paddy fields; format: in vivo; conditions: applied onto water surface, 25th day from treatment
From the text: as §1

corn (ZEAMX) = assay: Weed control effect test by stems-and-leaves treatment: phytotoxicity to corn; format: in vivo; conditions: 30th day from treatment
Method: A plastic pot of 1/2000 are area was each filled with a dry-field soil where the respective seeds of corn (ZEAMX), pitted morningglory (IPOLA), velvet leaf (ABUTH) and lamb's-quarters (CHEAL) were sowed and tuberous roots of yellow nutsedge (CYPES) were buried followed by pooling of water from the bottom part of the pot. These seeds and tuberous roots were grown in a greenhouse. […] Thereafter, growing was continued in the glasshouse to record the weed control effect and the extent of phytotoxicity on the 30th day from the treatment as indexes according to the criteria given in Table 1. The dosages are given in terms of the amount of the active ingredients per hectare (ha).

lamb's-quarters (CHEAL) = assay: Weed control effect test by stems-and-leaves treatment; format: in vivo; conditions: 30th day from treatment
Method: (§2) A plastic pot of 1/2000 are area was each filled with a dry-field soil where the respective seeds of corn (ZEAMX), pitted morningglory (IPOLA), velvet leaf (ABUTH) and lamb's-quarters (CHEAL) were sowed and tuberous roots of yellow nutsedge (CYPES) were buried followed by pooling of water from the bottom part of the pot. These seeds and tuberous roots were grown in a greenhouse. On the day when the pitted morningglory had reached its 4 leaves stage, a stems-and-leaves treatment was undertaken on the whole plant bodies with agents each prepared by dilution of a specified amount of the water-dispersible granules prepared in the same manner as in Example 3, 4 and 5 with water, respectively. Thereafter, growing was continued in the glasshouse to record the weed control effect and the extent of phytotoxicity on the 30th day from the treatment as indexes according to the criteria given in Table 1. The dosages are given in terms of the amount of the active ingredients per hectare (ha).

[3] = test system: pitted morningglory (IPOLA); assay: as above; format: in vivo; conditions: 30th day from treatment
Method: as §2

velvet leaf (ABUTH) = assay: as above; format: in vivo; conditions: 30th day from treatment
Method: as §2

yellow nutsedge (CYPES) = assay: as above; format: in vivo; conditions: 30th day from treatment
Method: as §2

COCc1cccc(C(O)c2nc(OC)cc(OC)n2)c1NS(=O)(=O)C(F)F (stereo not shown) [Compound A-1, 2-[(4,6-dimethoxypyrimidin-2-yl)hydroxymethyl]-6-methoxymethyl-N-difluoromethanesulfonylanilide]
extent of phytotoxicity index, OR (paddy rice plants (Or); 3 g a.i./10a): 0 (less than 5% growth inhibition)
weed control effect index, ECHOR (early watergrass (ECHOR); 3 g a.i./10a): 7 (not less than 65% but less than 75% growth inhibition)
weed control effect index, MOOVA ([1]; 3 g a.i./10a): 7 (not less than 65% but less than 75% growth inhibition)
weed control effect index, SCIJO (rock's bulrush (SCIJO); 3 g a.i./10a): 8 (not less than 75% but less than 85% growth inhibition)
weed control effect index, CYPSE ([2]; 3 g a.i./10a): 8 (not less than 75% but less than 85% growth inhibition)
weed control effect index, ANEKE (marsh dayflower (ANEKE); 3 g a.i./10a): 2 (not less than 15% but less than 25% growth inhibition)
extent of phytotoxicity index, ZEAMX (corn (ZEAMX); 10 g a.i./ha): 0 (less than 5% growth inhibition)
weed control effect index, CHEAL (lamb's-quarters (CHEAL); 10 g a.i./ha): 1 (not less than 5% but less than 15% growth inhibition)
weed control effect index, IPOLA ([3]; 10 g a.i./ha): 6 (not less than 55% but less than 65% growth inhibition)
weed control effect index, ABUTH (velvet leaf (ABUTH); 10 g a.i./ha): 5 (not less than 45% but less than 55% growth inhibition)
weed control effect index, CYPES (yellow nutsedge (CYPES); 10 g a.i./ha): 7 (not less than 65% but less than 75% growth inhibition)

CCCc1ccc2nc(Cl)c(S(=O)(=O)NC(=O)Nc3nc(OC)cc(OC)n3)n2n1 [TH-547, 1-(2-chloro-6-propylimidazo[1,2-b]pyridazin-3-ylsulfonyl)-3-(4,6-dimethoxypyrimidin-2-yl)urea]
extent of phytotoxicity index, OR (paddy rice plants (Or); 7 g a.i./10a): 0 (less than 5% growth inhibition)
weed control effect index, ECHOR (early watergrass (ECHOR); 7 g a.i./10a): 7 (not less than 65% but less than 75% growth inhibition)
weed control effect index, MOOVA ([1]; 7 g a.i./10a): 7 (not less than 65% but less than 75% growth inhibition)
weed control effect index, SCIJO (rock's bulrush (SCIJO); 7 g a.i./10a): 6 (not less than 55% but less than 65% growth inhibition)
weed control effect index, CYPSE ([2]; 7 g a.i./10a): 6 (not less than 55% but less than 65% growth inhibition)
weed control effect index, ANEKE (marsh dayflower (ANEKE); 7 g a.i./10a): 4 (not less than 35% but less than 45% growth inhibition)

CCNc1nc(Cl)nc(NC(C)C)n1 [atrazine]
extent of phytotoxicity index, ZEAMX (corn (ZEAMX); 1000 g a.i./ha): 0 (less than 5% growth inhibition)
weed control effect index, CHEAL (lamb's-quarters (CHEAL); 1000 g a.i./ha): 8 (not less than 75% but less than 85% growth inhibition)
weed control effect index, IPOLA ([3]; 1000 g a.i./ha): 3 (not less than 25% but less than 35% growth inhibition)
weed control effect index, ABUTH (velvet leaf (ABUTH); 1000 g a.i./ha): 3 (not less than 25% but less than 35% growth inhibition)
weed control effect index, CYPES (yellow nutsedge (CYPES); 1000 g a.i./ha): 3 (not less than 25% but less than 35% growth inhibition)

COC(=O)CSc1cc(/N=c2\sc(=O)n3n2CCCC3)c(F)cc1Cl [fluthiacet-methyl]
extent of phytotoxicity index, ZEAMX (corn (ZEAMX); 5 g a.i./ha): 0 (less than 5% growth inhibition)
weed control effect index, CHEAL (lamb's-quarters (CHEAL); 5 g a.i./ha): 8 (not less than 75% but less than 85% growth inhibition)
weed control effect index, IPOLA ([3]; 5 g a.i./ha): 3 (not less than 25% but less than 35% growth inhibition)
weed control effect index, ABUTH (velvet leaf (ABUTH); 5 g a.i./ha): 9 (not less than 85% but less than 95% growth inhibition)
weed control effect index, CYPES (yellow nutsedge (CYPES); 5 g a.i./ha): 2 (not less than 15% but less than 25% growth inhibition)

CCC1(CC2(c3cccc(Cl)c3)CO2)C(=O)c2ccccc2C1=O (stereo not shown) [indanofan]
weed control effect index, ECHOR (early watergrass (ECHOR); 15 g a.i./10a): 6 (not less than 55% but less than 65% growth inhibition)
weed control effect index, MOOVA ([1]; 15 g a.i./10a): 5 (not less than 45% but less than 55% growth inhibition)
weed control effect index, SCIJO (rock's bulrush (SCIJO); 15 g a.i./10a): 3 (not less than 25% but less than 35% growth inhibition)
weed control effect index, CYPSE ([2]; 15 g a.i./10a): 1 (not less than 5% but less than 15% growth inhibition)
weed control effect index, ANEKE (marsh dayflower (ANEKE); 15 g a.i./10a): 5 (not less than 45% but less than 55% growth inhibition)

COc1cc(OC)nc(NC(=O)NS(=O)(=O)c2ncccc2C(=O)N(C)C)n1 [nicosulfuron]
extent of phytotoxicity index, ZEAMX (corn (ZEAMX); 35 g a.i./ha): 0 (less than 5% growth inhibition)
weed control effect index, CHEAL (lamb's-quarters (CHEAL); 35 g a.i./ha): 8 (not less than 75% but less than 85% growth inhibition)
weed control effect index, IPOLA ([3]; 35 g a.i./ha): 3 (not less than 25% but less than 35% growth inhibition)
weed control effect index, ABUTH (velvet leaf (ABUTH); 35 g a.i./ha): 2 (not less than 15% but less than 25% growth inhibition)
weed control effect index, CYPES (yellow nutsedge (CYPES); 35 g a.i./ha): 4 (not less than 35% but less than 45% growth inhibition)
